Test system: endogenous Nicotiana benthamiana Argonaute-1 (AGO1) gene
Experiment: AGO1 anti-sense polynucleotides with or without PDS anti-sense polynucleotide, systemic bleaching (Example 33)
Assay type: in vivo
Conditions: PDS 25 nanomoles; AGO1 50 nanomoles of each of 14 polynucleotides; applied on separate leaves
Source text: A second set of experiments was designed to investigate the effects of silencing a component of the endogenous RNAi silencing pathway in a plant. Argonaute (AGO) proteins are components of the RNA-induced silencing complex (RISC) which binds small RNAs in the RNAi silencing process. Suppression of Argonaute would be expected to reduce the observed phenotypic effect caused by an RNAi silencing process. AGO1 anti-sense polynucleotides with the sequences […] (HL510, SEQ ID NO:300), […] (HL511, SEQ ID NO:301), […] (HL512, SEQ ID NO:302), […] (HL513, SEQ ID NO:303), […] (HL514, SEQ ID NO:304), […] (HL515, SEQ ID NO:305), […] (HL516, SEQ ID NO:306), […] (HL517, SEQ ID NO:307), […] (HL518, SEQ ID NO:308), […] (HL519, SEQ ID NO:309), […] (HL520, SEQ ID NO:310), […] (HL521, SEQ ID NO:311), […] (HL522, SEQ ID NO:312), […] (HL523, SEQ ID NO:313) were designed for the endogenous Nicotiana benthamiana Argonaute-1 (AGO1) gene, based on two Nicotiana benthamiana AGO1-2 partial cDNA sequences, • […] […] […] […] […] […] […] […] […] […] […] […] […] […] […] […] […] […] […] […] […] […] […] […] […] […] […] […] […] […] […] […] […] […] […] […] […] […] […] […] […] […] […] GC (SEQ ID NO:314) and • […] […] […] […] […] […] […] […] […] […] […] […] […] […] […] […] […] […] […] […] […] […] […] […] […] […] […] […] […] […] […] […] […] […] […] […] […] […] […] […] […] […] […] […] […] […] […] […] (SEQ ID NO:315).
Nicotiana benthamiana plants were treated using a procedure similar to that described in Example 12. […]

## CATCTCCTTTAATTGTACTGC (DNA, backbone not given here) [PDS 21-mer anti-sense ssDNA]
  systemic bleaching / difference to buffer: displayed systemic bleaching

Reference: patent US9121022B2, “Method for controlling herbicide-resistant plants” (priority 2010, dated 2015)
